Values joined by “and” are separate entries in the source; they are usually repeats but may differ in a detail not shown here. Identical values can stand only once.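 Cultured in 96-well plates, cells were exposed to test compound for 48 hours across five concentrations. At the GI50, growth is halved. The concentration for full growth arrest is given as TGI.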
Experiments:
Assay in all cases: NCI anticancer screen, dose series, 48 h
HCT-15 colon = tested on: HCT-15 colon
LOX IMVI melanoma = tested on: LOX IMVI melanoma
OVCAR-3 ovarian = tested on: OVCAR-3 ovarian
OVCAR-8 ovarian = tested on: OVCAR-8 ovarian
SF-539 CNS = tested on: SF-539 CNS
SK-MEL-2 melanoma = tested on: SK-MEL-2 melanoma
SK-OV-3 ovarian = tested on: SK-OV-3 ovarian
SW-620 colon = tested on: SW-620 colon
UO-31 renal = tested on: UO-31 renal
NCI/ADR-RES ovarian = tested on: NCI/ADR-RES ovarian

Row | SMILES | TGI (HCT-15 colon) | TGI (LOX IMVI melanoma) | TGI (OVCAR-3 ovarian) | TGI (OVCAR-8 ovarian) | TGI (SF-539 CNS) | TGI (SK-MEL-2 melanoma) | TGI (SK-OV-3 ovarian) | TGI (SW-620 colon) | TGI (UO-31 renal) | GI50 (HCT-15 colon) | GI50 (LOX IMVI melanoma) | GI50 (NCI/ADR-RES ovarian) | TGI (NCI/ADR-RES ovarian) | GI50 (OVCAR-3 ovarian) | GI50 (SF-539 CNS) | GI50 (SW-620 colon) | GI50 (UO-31 renal)
1 | O=C(Nc1ccccc1)c1ccc(Cl)c([N+](=O)[O-])c1 | 46.5 µM | > 100 µM | 43.5 µM | 39.6 µM | 60.5 µM | 32.4 µM | 65 µM | 34 µM | > 100 µM |  |  |  |  |  |  |  | 
2 | CC(C)=CC(C(O)c1ccccc1)S(=O)(=O)c1nccn1C (stereo not drawn) | > 100 µM | > 100 µM | > 100 µM | > 100 µM | > 100 µM | > 100 µM | > 100 µM | > 100 µM | > 100 µM |  |  |  |  |  |  |  | 
3 | CC(=O)NC(CCCCNC(=O)OCc1ccccc1)C(=O)NCc1ccccc1 (stereo not drawn) | > 100 µM | > 100 µM | > 100 µM | > 100 µM | > 100 µM | > 100 µM | > 100 µM | > 100 µM | > 100 µM |  |  |  |  |  |  |  | 
4 | COc1cc(-c2nc3ccc(C)cc3[nH]2)ccc1OCC(=O)N=Nc1c(O)[nH]c2ccccc12 | > 100 µM | 1.29 µM | 3.21 µM |  | 3.01 µM |  |  | 2.37 µM | 96.4 µM | 4.18 µM | 0.339 µM | > 100 µM | > 100 µM | 1.71 µM | 1.62 µM | 0.769 µM | 12.5 µM
5 | CCN(CC)CCn1c2c3ccccc3ccc2c2oc(=O)c3ccccc3c21 | > 100 µM | > 100 µM | > 100 µM | > 100 µM | 66.1 µM | > 100 µM | > 100 µM | > 100 µM | > 100 µM |  |  |  |  |  |  |  | 
6 | CCC(=O)c1cn(C)c(=O)c2ccccc12 | > 100 µM | > 100 µM | > 100 µM | > 100 µM | > 100 µM | > 100 µM | > 100 µM | > 100 µM | > 100 µM |  |  |  |  |  |  |  | 
7 | COc1ccc(NC(=O)C2C(=O)N(c3ccc(OC)cc3)C(=O)/C2=N/O)cc1 (stereo not drawn) | > 100 µM | > 100 µM | > 59.9 µM | 32 µM | 36.7 µM | > 86.8 µM | 39 µM | > 100 µM | 47 µM |  |  |  |  |  |  |  | 
8 | CC(=O)OCC1OC(n2c(-c3ccccc3)cc(-c3ccco3)c(C#N)c2=O)C(OC(C)=O)C(OC(C)=O)C1OC(C)=O (stereo not drawn) | > 100 µM | > 100 µM | > 100 µM | > 100 µM | > 100 µM | 36.9 µM and > 100 µM | > 100 µM | > 100 µM | > 100 µM and 67.6 µM | > 100 µM and 18.3 µM | 2.23 µM and 14.6 µM |  |  |  | 16.3 µM and 84.6 µM |  | > 100 µM and 21.2 µM
9 | c1cnc2c(c1)-n1cccc1C1(CCSCC1)NN2 | > 100 µM | > 100 µM | > 100 µM | > 100 µM | > 100 µM | > 100 µM |  | > 100 µM | 94.1 µM |  |  |  |  |  |  |  | 
10 | Cc1nc2ccc(C(F)(F)F)cc2nc1Nc1ccc(Cl)c(Cl)c1 | 18.5 µM | 13.5 µM | 26.9 µM | 25.4 µM | 27.5 µM | 30.2 µM | 36 µM | 28.3 µM | 24.6 µM |  |  |  |  |  |  |  | 

From PubChem BioAssay (NCI)
